Experimental data: US7897591B2, “Method of treating fatty liver disease” (priority 2005, dated 2011)

Legend:
Format in all cases: in vivo, mouse
IL-6 = assay: ELISA for serum IL-6 levels; settings: HCD+MAR vs HCD-only group, P=0.001
Protocol: (§1) Control animals (n=5) received normal chow and water ad libitum. All animals in the experimental groups were fed a fat-free, high carbohydrate liquid diet (HCD) ad libitum placed in one bottle per cage as previously described (3, 62). No additional sources of nutrition or hydration were provided. The HCD liquid solution contained 20% dextrose, a commercial mixture of 2% essential and nonessential amino acids (TrophAmine, B. Braun Medical, Irvine, Calif.), 2 ml trace elements (Trace Elements Injection 4, USP—Pediatric, American Regent Shirley, N.Y.), and 5 ml multivitamins (M.V.I. Pediatric™, Mayne Pharma, Paramus, N.J.). Each liter of HCD contained 30 meq sodium, 20 meq potassium chloride, 15 meq calcium, 10 meq magnesium, and 10 mM phosphate. The bottles were replaced daily with fresh HCD solution. HCD animals (n=5) received HCD only and no additional treatment for 19 days. The HCD+MAR animals (n=15) additionally received 100 mg/kg of Marimastat™ in 0.45% methylcellulose (Sigma-Aldrich Corporation, St. Louis, Mo.) vehicle twice daily via orogastric gavage. The animals were individually weighed every third day and at sacrifice. Mouse serum IL-6 levels were determined using a commercial ELISA kit (Quantikine®, R&D systems, Inc., Minneapolis, Minn.). Optical density was read at 450 nm and analyzed with Softmax® PRO Software (Molecular Devices Corporation, Sunnyvale, Calif.).

C57BL/6 mice = assay: General observations: survival, stool, body weight, macroscopic liver appearance and weight
Protocol: Experiments were performed on 5-6 week-old C57BL/6 mice (Jackson Laboratories, Bar Harbor, Me.). The animals, in groups of five, were housed in a barrier room and were acclimated to their environment for at least 72 hours prior to the initiation of each experiment. Animal protocols complied with the NIH Animal Research Advisory Committee guidelines and were approved by the Children's Hospital Boston Animal Care and Use Committee.
as §1, with “sacrifice.” for “sacrifice. Mouse serum IL-6 levels were determined using a commercial ELISA kit (Quantikine®, R&D systems, Inc., Minneapolis, Minn.). Optical density was read at 450 nm and analyzed with Softmax® PRO Software (Molecular Devices Corporation, Sunnyvale, Calif.).”
We then performed a midline laparotomy to observe, excise, and weigh the liver. Approximately one half of the liver was fixed in 10% formalin at 4° C. overnight, washed with phosphate buffered saline, and then embedded in paraffin. After cutting 5 μm sections, slides were stained at the Department of Pathology, Children's Hospital Boston with H&E to examine cellular architecture and lipid accumulation, and with periodic acid-Schiff (PAS) to identify the presence of glycogen.

PPAR-α = assay: Western blot densitometry of liver PPAR-α; settings: HCD+MAR mice; nuclear + cytosolic summed; mean±SEM; P<0.02 vs HCD-only (11.5±4.4)
Protocol: as §1, with “[…] The assay” for “Mouse serum IL-6 levels were determined using a commercial ELISA kit (Quantikine®, R&D systems, Inc., Minneapolis, Minn.). Optical density”, “595” for “450”, “Calif.). 30 ug of protein per sample were analyzed by SDS-PAGE. […]” for “Calif.).”

## CNC(=O)[C@@H](NC(=O)[C@H](CC(C)C)[C@H](O)C(=O)NO)C(C)(C)C [Marimastat]
IL-6
  serum IL-6 level: significantly higher
C57BL/6 mice; 19 day protocol
  survival: All animals survived
C57BL/6 mice; mouse, in vivo
  liver weight: no significant difference
C57BL/6 mice; mouse, in vivo, 100 mg/kg
  stool / bowel integrity: soft stool without gross signs of loss of bowel integrity
PPAR-α
  PPAR-α level, Western blot densitometry: 151.7±3.4
